Reference: ChEMBL document CHEMBL1201862, “PubChem BioAssay data set” (2004)
Active and inactive are the calls of the source.

Assays:
[1] = target: T1, DNA repair protein RAD52 homolog (Homo sapiens, UniProt P43351); format: functional, biochemical
T1 sequence (P43351 whole entry): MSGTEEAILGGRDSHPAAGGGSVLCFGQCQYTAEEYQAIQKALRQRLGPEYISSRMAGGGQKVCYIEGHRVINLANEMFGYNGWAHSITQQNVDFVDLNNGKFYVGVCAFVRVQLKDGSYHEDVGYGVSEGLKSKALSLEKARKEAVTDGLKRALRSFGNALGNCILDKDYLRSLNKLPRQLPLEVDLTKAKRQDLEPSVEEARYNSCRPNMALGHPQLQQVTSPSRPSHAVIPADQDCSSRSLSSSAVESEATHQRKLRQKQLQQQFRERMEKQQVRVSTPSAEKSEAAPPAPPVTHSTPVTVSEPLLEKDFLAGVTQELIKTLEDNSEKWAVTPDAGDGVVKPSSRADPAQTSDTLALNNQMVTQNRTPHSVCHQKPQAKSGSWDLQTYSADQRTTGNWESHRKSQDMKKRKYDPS

cells [2] = format: functional, cell-based
INS1 = assay: beta cell apoptosis inhibitors, cytokine rescue, dose response, luminescence, retest (AID 449756); format: functional, cell-based; conditions: Rattus norvegicus;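 further: cell death triggered by IL-1 beta plus TNF-alpha plus IFN-gamma mixture; protective hits raise ATP signal compared with cytokine alone wells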
[3] = C. albicans growth with fluconazole, confirmation, fluorescence, retest (AID 2467); format: functional, cell-based
[4] = NIH-3T3 fibroblast cytotoxicity, dose response, cytotoxicity control, cell-based, fluorescence, Alamar Blue, secondary assay (AID 2327); format: functional;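 further: NIH-3T3 mouse fibroblasts cultured with fluconazole at 8 µg/mL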
cells [5] = format: functional, cell-based; remark: listed apart in the source
[6] = target: T2, Rac GTPase-activating protein 1 (Homo sapiens, UniProt Q9H0H5); assay: MgcRacGAP GTPase-activating activity inhibitors, confirmation, biochemical, ADP Hunter fluorescence, primary and confirmatory (AID 624330); format: functional
T2 sequence (Q9H0H5 whole entry): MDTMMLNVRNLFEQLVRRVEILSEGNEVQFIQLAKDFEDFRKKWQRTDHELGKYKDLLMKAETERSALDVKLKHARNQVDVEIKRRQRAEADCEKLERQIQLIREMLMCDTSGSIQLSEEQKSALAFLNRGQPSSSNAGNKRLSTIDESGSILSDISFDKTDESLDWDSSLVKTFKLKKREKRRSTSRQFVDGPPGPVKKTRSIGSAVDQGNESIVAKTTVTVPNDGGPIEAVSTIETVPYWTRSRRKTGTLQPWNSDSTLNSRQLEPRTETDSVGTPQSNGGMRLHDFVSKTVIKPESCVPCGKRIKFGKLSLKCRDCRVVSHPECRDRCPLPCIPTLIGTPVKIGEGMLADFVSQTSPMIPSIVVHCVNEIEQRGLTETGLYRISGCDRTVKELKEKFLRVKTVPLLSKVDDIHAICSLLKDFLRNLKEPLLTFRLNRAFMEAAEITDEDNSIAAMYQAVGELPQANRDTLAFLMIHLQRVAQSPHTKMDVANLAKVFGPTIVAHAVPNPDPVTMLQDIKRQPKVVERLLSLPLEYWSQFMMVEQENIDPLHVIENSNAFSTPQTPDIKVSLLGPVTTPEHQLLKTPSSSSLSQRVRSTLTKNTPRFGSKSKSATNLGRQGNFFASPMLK

[7] = HepG2 cell cytotoxicity, dose response, cytotoxicity control, plate reader, dry powder samples (AID 1159569); format: functional, cell-based;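 further: inhibitor potency with signal falling toward the positive control level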
[8] = P. falciparum 3D7-ScDHODH growth inhibitors, dose response, SYBR Green, dry powder samples (AID 1159570); format: functional, cell-based;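 further: parasite growth measured after 72 hours of compound exposure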
[9] = P. falciparum Dd2 growth inhibitors, dose response, SYBR Green, dry powder samples (AID 1159566); format: functional, cell-based;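 further: potency for growth inhibition with lower SYBR green DNA signal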
[10] = P. falciparum ATP4 D1247Y mutant growth inhibitors, dose response, NITD609-resistant line, SYBR Green, dry powder (AID 1159571); format: functional, cell-based;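 further: parasites synchronized at ring stage by sorbitol before testing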
[11] = P. falciparum Dd2 growth inhibitors, dose response, SYBR Green, cherry-picked samples (AID 1159567); format: functional, cell-based
[12] = HepG2 cell cytotoxicity, dose response, cytotoxicity control, cherry-picked samples (AID 1159577); format: functional, cell-based

Structure (SMILES)	EC50 (cells [2])	EC50 (cells [5])	AC50 [7]	AC50 [8]	AC50 [9]	AC50 [10]	AC50 [11]	further results
C[C@H]1CN([C@@H](C)CO)C(=O)CCCn2nncc2CO[C@@H]1CN(C)C(=O)Nc1ccc(N2CCN(C)CC2)cc1	–	–	–	–	–	–	–	AC50 [1]: 28.2 µM (active)
Cc1ccc(/C=N/NC(=O)c2c(-c3ccccc3)noc2C)c(O)c1	> 350 µM (not active)	12.4 µM (active)	–	–	–	–	–	AC50 (INS1): 2.33 µM (active); EC50 [3]: 2.83 µM (active); EC50 [4]: > 150 µM (inactive)
CCOc1cc(/C=N/NC(=O)c2c(-c3ccccc3)noc2C)ccc1O	> 350 µM (not active)	> 350 µM (not active)	–	–	–	–	–	IC50 [6]: 55.5 µM (active)
C/C(=N\NC(=O)CN1CCCCC1)c1ccccc1O	> 350 µM (not active)	29.7 µM (active)	–	–	–	–	–	–
COc1ccccc1CN1CC2(C1)[C@H](c1ccccc1)[C@@H](CO)N2Cc1ccccc1	–	–	24.9 µM (active)	0.765 µM (active)	0.477 µM (active)	0.656 µM (active)	–	–
COc1cccc(S(=O)(=O)N2CCC3(CC2)CN[C@H](CO)c2[nH]c4cc(OC)ccc4c23)c1	–	–	33.2 µM (active)	4.68 µM (active)	2.53 µM (active)	2.52 µM (active)	2.6 µM (active)	–
N#C[C@H]1[C@@H](c2ccc(C#Cc3ccccc3F)cc2)[C@@H](CO)N1C(=O)C1CCCC1	–	–	54.2 µM (active)	1.69 µM (active)	1.18 µM (active)	1.88 µM (active)	1.84 µM (active)	AC50 [12]: > 39 µM (inactive)
OC[C@@H]1[C@H](c2ccc(-c3ccccc3)cc2)[C@H]2CN(CCC(F)(F)F)CCCCN12	–	–	18 µM (active)	1.15 µM (active)	0.623 µM (active)	1.29 µM (active)	2.13 µM (active)	AC50 [12]: 21.7 µM (active)
